What was measured:
[1] = tested on: spasm induced by histamine; test: Konzett-Rossler test, spasm induced by histamine; format: in vivo; settings: spasm induced by histamine (2 mcg/kg/e.v.); guinea pig
Procedure: (§1) (0.0276-0.1406), like that of theophylline of 0.0395 mM/kg/e.v. […] (0.0133-0,893) which is definitely and significatively lower than that of theophylline (0.1026 (0.0508-0.2072). The bronchodilating activity of the compounds of formula I is consequently definitely higher than that of theophylline.

[2] = tested on: cough induced by citric acid; test: anticough activity, cough induced by citric acid; settings: guinea pig
[3] = tested on: fluid of the respiratory tract; test: mucolytic-expectorant activity, fluorescein elimination in the fluid of the respiratory tract; format: in vivo; settings: 1 mM/kg/os; in comparison with the controls
[4] = tested on: spasm induced by acetylcholine; test: Konzett-Rossler test, spasm induced by acetylcholine; format: in vivo; settings: spasm induced by acetylcholine (10 mcg/kg/e.v.); guinea pig
Procedure: as §1

[5] = tested on: suspension of 4% mucine; test: in vitro mucolytic activity, viscosity of a 4% mucine suspension; format: biochemical; settings: 0,00625 M, after hydrolysis with rat serum
From the text: More specifically in the test of "in vitro" mucolytic activity with a suspension of 4% mucine (II Farmaco, ed.prat.33-379, 1978), and the molar concentration being the same (0,00625 M), after hydrolysis with rat serum, the 2-f(theophyllin-7-yl)-methyloxysuccinoylthiSïpropionamido acetic acid caused a reduction of viscosity by 11,2% to take place, which is like that of tiopronin (11,5%) and higher than that of N-acetylcysteine (7,6%).

[6] = acute toxicity; settings: in vivo, ip; female mouse
[7] = tested on: shock induced by histamine; test: antibronchospastic activity, shock induced by histamine; format: in vivo; settings: 0.25 mM/kg/i.p.; guinea pig; value after treatment

Row | SMILES | ED [1] | reduction of the cough ([2]; 100 mg/kg/i.p., in comparison with the controls) [%] | increase of the escretion of the colouring compound [3] [%] | ED50 [4] [mM/kg/e.v.] | reduction of viscosity [5] | LD50 [6] [mg/kg] | shock resistance [7] [s] | reduction of the cough ([2]; 5 mg/kg/i.p.) [%]
1 | CC(SC(=O)CCC(=O)OCn1cnc2c1c(=O)n(C)c(=O)n2C)C(=O)NCC(=O)O (centres unmarked) [2-[(theophyllin-7-yl)methyloxysuccinoylthio]-propionamido acetic acid] | 0.0345 mM/kg/e.v. | 79 | 86 | 0.0623 | 11,2% | 481 | 291.7 ± 43.2 | 
2 | CC(=O)N[C@@H](CS)C(=O)O [N-acetylcysteine] |  |  |  |  | 7,6% |  |  | 
3 | COc1ccc2c3c1O[C@H]1[C@@H](O)C=C[C@H]4[C@@H](C2)N(C)CC[C@@]341 [codeine phosphate] |  |  |  |  |  |  |  | 87
4 | Cn1c(=O)c2[nH]cnc2n(C)c1=O [theophylline] | 0.1026 (0.0508-0.2072) mM/kg/e.v. |  |  | 0.0395 |  |  | 316.8 ± 27.3 | 
5 | CC(S)C(=O)NCC(=O)O (centres unmarked) [tiopronin] |  |  | 94 |  | 11,5% |  |  | 

From EP0189101A2, “Compounds having mucolytic and bronchodilating activity, a process for their preparation and pharmaceutical composition containing them as active principle” (PROTER S.p.A., priority 1985, dated 1986)
